Measured values reported in patent US11865125B2, “APKC inhibitors and methods of treating a neurodegenerative disease or disorder” (UNIVERSITY OF SOUTH FLORIDA, priority 2016, dated 2024).
“Also recorded” adds a separate entry of the source.

Legend:
Akt [1] = assay: Akt activity in LA1-5s neuroblastoma cells; assay type: cell-based, human; conditions: LA1-5s cells, 200 nM insulin
Description: (§1) Relative bar values in panel a are mean±SEM of 6 determinations. Asterisks: *, P<0.05; **, P<0.01; ***, P<0.001 (ANOVA). Values in panel b are means of 2-4 determinations.
(§2) Shown here are Mean±SEM (N=4) values relative to the mean initial basal or insulin-stimulated level of indicated immunoreactive protein/peptide. Asterisks: *, P<0.05; **, P<0.01; ***, P<0.001 (ANOVA).
(§3) Western Analyses. As described, Western analyses were conducted with rabbit antisera or mouse monoclonal antibodies (mMab), using: anti-aPKC (Santa Cruz Biotechnologies, Santa Cruz, CA); anti-phospho-threonine-560/555-PKC-ζ/λ/ι (Invitrogen, Carlsbad, CA); anti-p-serine-256-FoxO1 and anti-FoxO1 (Abnova, Walnut, CA); anti-Akt (mMab), anti-phospho-serine-473-Akt, anti-phospho-serine-9-GSK3P anti-GSK313, anti-phospho-serine-253-FoxO3a, anti-FoxO3a, anti-phospho-serine-256-FoxO1, anti-phospho-serine-193-FoxO4; anti-FoxO1, anti-phospho-serine-2448-mTOR, anti-mTOR, anti-β-amyloid (anti-5-10 kDa-Aβ1-40/42) and anti-amyloid precursor protein (anti-120 kDa-APP) (Cell Signaling Technologies, Danvers, MA); and anti-phospho-serine-202-tau, anti-phospho-threonine-231-tau (Gene Tex, Irvine, CA). Samples from experimental groups were compared on the same blots, and routinely checked with loading controls. Note that: insulin-sensitive 70 kDa aPKC is largely PKC-ζ in mouse brain and orthologous PKC-ι (98% aa homology) in monkey and other primate brains; brain PKC-ζ exists largely as a 50 kDa moiety that, lacking a regulatory domain, is constitutively-active and unresponsive to insulin.

Aβ1-40/42 = Aβ1-40/42 levels in LA1-5s neuroblastoma cells; assay type: cell-based, human; conditions: LA1-5s cells
Description: as §1, §2, §3

Akt [2] = assay: brain Akt phosphorylation/activity in mice; assay type: in vivo, mouse
Excerpt: (§4) Mouse Studies. Brain samples were obtained from normal and insulin-resistant mice and monkeys used previously, and includes mice originally used in studies of insulin signaling and resistance in liver: (a) 4-6 month old C57Bl/6 mice used in studies of high-fat-feeding [USF Vivarium] [6]; 4-6 month-old male C57Bl/6 ob/ob and lean ob+ mice (Jackson Labs, Bar Harbor, Maine); and (c) 10-12 month-old C57Bl/6 Het-MλKO mice [USF Vivarium] [8]. […] Where indicated normal mice were given a single SC injection of saline or saline containing 1.5 mg/kg ICAPP to follow time-related alterations in brain signaling factors. Where indicated, mice were treated intraperitoneally (IP) with insulin (1 U/kg body weight) or vehicle 15-min before euthanization by administration of Xylazine/Ketamine, followed by whole body perfusion with phosphate-buffered saline and rapid removal of brain and other tissues.
(§5) Tissue Preparations. As described, mouse brains were hemisected sagittally, and one-half was frozen in liquid N2, stored at −80° C., and samples thereof were homogenized in buffer containing 0.25M sucrose, 20 mM Tris/HCl (pH, 7.5), 2 mmol/l EGTA, 2 mM EDTA, 1 mM phenlysulfonoylfluoride (PMSF), 20 μg/ml leupeptin, 10 μg/ml aprotinin, 2 mM Na4P2O7, 2 mM Na3VO4, 2 mM NaF, and 1 μM microcystin, and then supplemented with 1% TritonX-100, 0.6% Nonidet and 150 mM NaCl.
as §3
(§6) Where indicated, mice were randomly treated with insulin (1 unit/kg/bw i.p.) 15 min before being euthanized by administration of xylazine/ketamine, followed by whole-body perfusion with PBS and rapid removal of brain and other tissues.

aPKC = biological target: T1, aPKC (Homo sapiens, UniProt P41743); parameters: endogenous in cells; conditions: previously seen, stated as similar; read-out: IC50, inhibition of aPKC activity in isolated human hepatocytes; cited from earlier work
T1 sequence (P41743 2-596): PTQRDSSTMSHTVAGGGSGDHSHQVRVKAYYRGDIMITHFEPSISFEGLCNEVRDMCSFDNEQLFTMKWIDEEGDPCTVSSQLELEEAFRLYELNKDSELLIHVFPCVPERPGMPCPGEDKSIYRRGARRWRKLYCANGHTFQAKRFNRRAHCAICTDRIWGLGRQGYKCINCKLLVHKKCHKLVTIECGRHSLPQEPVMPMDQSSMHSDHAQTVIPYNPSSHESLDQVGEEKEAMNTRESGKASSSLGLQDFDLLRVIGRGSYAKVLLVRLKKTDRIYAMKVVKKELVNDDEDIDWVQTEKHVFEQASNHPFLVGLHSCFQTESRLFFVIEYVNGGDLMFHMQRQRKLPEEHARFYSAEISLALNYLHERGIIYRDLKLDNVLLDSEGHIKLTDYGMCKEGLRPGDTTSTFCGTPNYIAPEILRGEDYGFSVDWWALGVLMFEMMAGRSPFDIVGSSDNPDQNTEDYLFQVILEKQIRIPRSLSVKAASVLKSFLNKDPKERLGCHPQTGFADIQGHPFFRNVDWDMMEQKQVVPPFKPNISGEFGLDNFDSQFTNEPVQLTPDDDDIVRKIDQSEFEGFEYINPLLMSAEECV

[3] = system: Akt substrates FOXO1, FOXO3a, GSK3β, and mTOR; assay: phosphorylation of Akt substrates in mouse brain; assay type: in vivo; conditions: Het-MλKO mice, s.c. once daily for 8 days (ICAPP 0.4 mg/kg, ATM 60 mg/kg)
Excerpt: as §4, §5
Western Analyses. […]

β-secretase (BACE1) = assay: β-secretase activity (BACE1) in LA1-5s neuroblastoma cells; assay type: cell-based, human; conditions: LA1-5s cells
Description: as §1, §2
β-Secretase Activity (BACE1; beta-site APP-cleaving enzyme-1). β-Secretase was measured was measured using a kit from Thermo-Fisher.

[4] = serum insulin levels / hyperinsulinemia in insulin-resistant mice; assay type: in vivo, mouse; conditions: Het-MλKO mice
Excerpt: as §4, §6

[5] = system: conventional PKCs, novel PKCs, AMP-dependent protein kinase and Akt; conditions: cited from earlier work
[6] = passage of the blood brain barrier; assay type: in vivo, mouse; conditions: intact mice, inferred from inhibition of brain PKC-λ/ι

NC(=O)c1ncn([C@@H]2C[C@H](COP(=O)(O)O)[C@@H](O)[C@H]2O)c1N [ICAPP]
effect on stimulatory effects of insulin on Akt activity (Akt [1]): without altering | effect on metformin-induced increase in Aβ1-40/42 (Aβ1-40/42): dose-dependently inhibited | effect on insulin-stimulated Aβ1-40/42 levels (Aβ1-40/42; 200 nM insulin): dose-dependent decreases | resting/basal brain Akt activity (Akt [2]; Het-MλKO mice, s.c. once daily for 8 days (ICAPP 0.4 mg/kg, ATM 60 mg/kg)): diminished; also recorded: reductions of resting/basal activities of brain Akt and aPKC, comparable to those seen with ATM treatment | acute insulin activation of brain Akt (Akt [2]; Het-MλKO mice, s.c. once daily for 8 days (ICAPP 0.4 mg/kg, ATM 60 mg/kg), insulin 1 U/kg i.p. 15 min): restored ability of insulin to acutely activate Akt; also recorded: insulin was fully able to fully activate Akt | insulin-stimulated increases in brain Akt activity (Akt [2]; normal mice, single s.c. dose of ICAPP 1.5 mg/kg, insulin 1 U/kg i.p. 15 min before killing): without altering; also recorded: without inhibiting insulin effects on Akt | IC50 (aPKC): 1 to 10 nM | resting/basal phosphorylation of Akt substrates in brain [3]: diminished | acute insulin-stimulated phosphorylation of Akt substrates in brain ([3]; insulin 1 U/kg i.p. 15 min): restored ability of insulin; also recorded: fully able | effect on metformin-induced increase in β-secretase activity (β-secretase (BACE1)): dose-dependently inhibited | effect on insulin-stimulated β-secretase activity (β-secretase (BACE1); 200 nM insulin): dose-dependent decreases | hyperinsulinemia [4]: hyperinsulinemia was corrected; also recorded: fully reversed | inhibition of conventional PKCs, novel PKCs, AMP-dependent protein kinase and Akt [5]: Neither ICAPP [8] nor ACPD [6,7] inhibit | passage of the blood brain barrier (BBB) [6]: can cross the BBB
